Results on 1 compound are retold here after patent publication US20260306640A1, “TECHNOLOGIES TARGETING CELL STATES” (Auron Therapeutics, Inc., priority 2023, published 2026).

Holding throughout (type): cell-based
Test [1] relates to LASCPC-01 cells. Nature of the test: Cell viability (Cell Titer Glo, 7 days), LASCPC-01 cells. To be noted: 168 h, Cell Titer Glo relative to DMSO control after 7 days, FIG. 3 (B). As for the experimental part:
FIG. 3. Provided compounds can provide various activities. (A): Provided technologies can reduce KAT2A and KAT2B levels and histone acetylation levels. […] Cell viability (Cell Titer Glo) data relative to DMSO control after 7 days of treatment with compound 22 are presented as examples to confirm inhibition. GI50=5 nM. (C): Provided technologies can modulate cell states and induce differentiation. […] (D): Provided technologies can reduce KAT2A and KAT2B levels and histone acetylation levels including in neuroendocrine prostate cancer primary patient organoid. […] Concentrations are nM. […] Cell viability data relative to DMSO control after 21 days of treatment with compound 22 are presented as examples to confirm inhibition. GI50=3 nM. (F): Provided technologies can modulate cell states and induce differentiation.
(In general: In ATP-based viability assays light output follows the ATP content of the culture.)

Test [2] has as its system NCI-H1876 cells. Nature of the test: Cell growth inhibition, SCLC cell line NCI-H1876 (cell count, day 10). To be noted: 240 h; NCI-H1876, day 10, cell count. The text has this: Among other things, provided technologies are useful for treating various diseases, disorders, or conditions. For example, in some embodiments, provided technologies are useful for treating cancer as confirmed in the present Example. […] In some embodiments, provided technologies can inhibit cell proliferation. In some embodiments, the present disclosure provides technologies for assessing various technologies, e.g., compounds, compositions, or methods. Among other things, the present Example provides technologies, e.g., cell growth inhibition assay, for assessing various technologies. […] In some embodiments, the following cell growth inhibition methods are utilized to assess provided technologies.
SCLC: SCLC cell lines NCI-H1048 and NCI-H1876 were cultured in DMEM F12 media with 5% FBS, 1% Penicillin/Streptomycin and HITES supplement (Hydrocortisone, Insulin, Transferrin, Estradiol and Sodium Selenite). NCI-H1048 cells were plated at 10,000 cells/well of a 24-well plate and NCI-H1876 cells were plated at 20,000 cells/well of a 96-well plate. Compound and media were replenished every two days out to day 11 and 10 respectively. Cells were then trypsinized and counted using either hemocytometer or an automated Countess cell counter.

The test system of test [3] is histone acetylation (e.g., AcH3K9). The test can be described thus: Histone H3K9 acetylation (AcH3K9), Western Blot, LASCPC-01 cells. To be noted: FIG. 3. The method, then:
In some embodiments, an assessment is performed using cells. In some embodiments, cells were treated with various compounds before assessing KAT2A and/or KAT2B levels, histone (e.g., H3K9) acetylation levels, cell states, growth, etc.
Western Blot: In some assessments, MOLM13, NCI-H1048, LASCPC-01 and NEPC organoid cells were treated with compounds at certain concentrations for certain periods of time, and cell pellets were lysed by adding 1-part 4×laemmli Sample buffer (e.g., Bio-Rad Catalog #1610747) along with Mercaptoethanol (e.g., Bio-Rad Catalog #1610710) according to manufacturer's instructions, and 1-part RIPA buffer with 2×protease and phosphatase inhibitor. The samples were sonicated 30% amplitude, 35 seconds on and 35 seconds off for 1 cycle and boiled at 95° C. for 5 minutes. 30-35 μL of samples were loaded on a 4-15% Criterion™ TGX Stain-Free™ Protein Gel (Bio-rad, 5678084). In some assessments, NCI-H1048 flash frozen tumor pieces were resuspended in RIPA buffer and homogenized on TissueLyser II with steel beads at 30 Hz for 3 minutes. Samples were then centrifuged at […] at 4° C. for 15 minutes. BCA protein determination was performed and samples normalized for 1.95 ug/uL. 19.5 uL were loaded and run on similar gels as cell pellets. […]
For orientation: In western blotting, separated proteins are transferred to a membrane and probed.

Test [4] addresses KAT2B (Homo sapiens, UniProt Q92831). The test can be described thus: KAT2B reduction in LASCPC-01 cells. More on the design: degrader, Western blot. As for the experimental part: MOLM-13 cells or NCI-H1048 cells were washed with PBS, then lysed with RIPA buffer containing 1×protease and phosphatase inhibitors (SantaCruz Biotechnologies Cat #sc-24948A). Protein was isolated by centrifugation at 12,000×g for 10 minutes at 4° C. and supernatant was collected. Protein was quantified via Bradford assay. Samples were diluted to 4 μg lysate in 16 μL RIPA buffer and then 4 μL of Jess Sample Buffer. Samples were heated at 95° C. for 5 minutes. Samples were loaded onto 12-230 kDa Jess™ Separation Module, 8×25 capillary cartridges (SM-W004, Biotechne). Antibodies loaded were: Primary antibody for KAT2A (GCN5L2 (C26A10) Rabbit mAb (3305, CST)) and for KAT2B (PCAF (C14G9)) Rabbit mAb (3378, CST) at 1:1000 and Anti-Rabbit Detection Module for Jess™ (Cat No #DM-001, Biotechne). Signal was detected by chemiluminescence.
In some embodiments, assessment was performed in LASCPC-01 cells, and reduction of KAT2A and KAT2B levels, including in some cases selectivity for one over the other, was confirmed. In some embodiments, DC50 and/or DC90 were assessed. In some embodiments, DC50 for various compounds was about or no more than about 1 nM. In some embodiments, DC90 for various compounds was about or no more than about 1 nM. In some embodiments, selectivity for the same polypeptide by a compound was observed across multiple types of cells (e.g., when assessed using DC50 and/or DC90). In some embodiments, certain compounds can provide improved properties and/or activities (e.g., potency). Data from certain assessments for certain compounds are presented below as examples (NT: not tested). It has been confirmed that various compounds described herein, including multiple compounds in Table 1, can be deemed to provide further improved properties and/or activities compared to the compound(s) in the table below for certain contexts, aspects, and/or uses.

Chain of KAT2B (Q92831 whole entry): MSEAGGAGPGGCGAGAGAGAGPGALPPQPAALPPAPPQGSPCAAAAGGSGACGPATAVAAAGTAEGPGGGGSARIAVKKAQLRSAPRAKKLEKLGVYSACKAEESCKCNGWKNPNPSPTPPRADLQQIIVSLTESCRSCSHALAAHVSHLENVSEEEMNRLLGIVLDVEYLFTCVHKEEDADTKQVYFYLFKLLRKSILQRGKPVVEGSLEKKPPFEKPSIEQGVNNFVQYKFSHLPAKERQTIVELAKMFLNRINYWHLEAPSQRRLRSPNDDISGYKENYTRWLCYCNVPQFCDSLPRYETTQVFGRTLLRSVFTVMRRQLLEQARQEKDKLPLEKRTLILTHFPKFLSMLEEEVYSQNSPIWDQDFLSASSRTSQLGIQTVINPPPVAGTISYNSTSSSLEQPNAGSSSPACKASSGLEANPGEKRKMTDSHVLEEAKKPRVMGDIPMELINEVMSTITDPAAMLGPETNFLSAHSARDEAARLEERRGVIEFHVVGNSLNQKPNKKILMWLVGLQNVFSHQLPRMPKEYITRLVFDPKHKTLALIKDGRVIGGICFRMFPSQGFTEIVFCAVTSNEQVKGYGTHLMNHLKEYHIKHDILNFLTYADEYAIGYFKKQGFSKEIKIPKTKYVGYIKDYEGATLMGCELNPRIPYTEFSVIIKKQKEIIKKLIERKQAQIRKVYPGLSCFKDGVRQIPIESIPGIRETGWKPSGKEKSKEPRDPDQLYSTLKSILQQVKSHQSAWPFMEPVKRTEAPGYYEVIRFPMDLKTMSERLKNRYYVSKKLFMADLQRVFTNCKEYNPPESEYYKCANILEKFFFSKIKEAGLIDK

What is called GI50 is the concentration at which growth is held to half of that of the control. A high value points to lower sensitivity of the cells. A word on the DC50: it is the concentration at which degradation of the target reaches its halfway point. Higher therefore signals degradation only at high concentration. In the case of `CN1C[C@H](Nc2cnn(C)c(=O)c2Br)C[C@H](c2ccc(C(=O)N3CCC(CN4CCN(c5ccc6c(c5)CN(C5CCC(=O)NC5=O)C6=O)CC4)CC3)cc2)C1` (stereo partly drawn) [Compound 22, 3-(5-(4-((1-(4-((3R,5R)-5-((5-bromo-1-methyl-6-oxo-1,6-dihydropyridazin-4-yl)amino)-1-methylpiperidin-3-yl)benzoyl)piperidin-4-yl)methyl)piperazin-1-yl)-1-oxoisoindolin-2-yl)piperidine-2,6-dione], the GI50 was determined as 5 nM in test [1] and 1 nM in test [2]. In addition, the “histone acetylation (e.g., AcH3K9) levels” value in test [3] is given as “reduce histone acetylation (e.g., AcH3K9) levels”. Also, it took 0.16 nM to reach half-maximal degradation in test [4] (LASCPC-01, KAT2B) (DC50). The EC90 in test [4] (LASCPC-01, KAT2B, read-out: DC90 (the source's name)) turned out to be 0.42 nM. For the same compound, the KAT2B levels entry in test [4] (LASCPC-01 cells, FIG. 3) is “potently reduce KAT2A and KAT2B levels”.
